{
  "source": "patent US20250312462A1",
  "about": "“PAK1 DEGRADERS AND METHODS OF USE THEREOF” (INSTITUTE FOR CANCER RESEARCH D/B/A THE RESEARCH INSTITUTE …, priority 2022, published 2025)",
  "key": {"MAP3K1": {"molecular_target": "MAP3K1 (Homo sapiens, UniProt Q13233)", "assay": "KINOMEscan", "details": "read-out: Percent Control", "procedure": "(§1) The kinase engagement assay (KINOMEscan®) was performed by DiscoverX assessing binding abilities toward a set of kinases."}, "ABL1-nonphosphorylated": {"molecular_target": "ABL1-nonphosphorylated (Homo sapiens, UniProt P00519)", "assay": "KINOMEscan", "details": "read-out: Percent Control", "procedure": "as §1"}, "Nluc-PAK1": {"molecular_target": "T1, Nluc-PAK1 (Homo sapiens, UniProt Q13153+Q96SW2)", "T1 construct": "[…]; expressed in transfected cells", "assay": "Nluc-PAK1 luciferase assay in HEK293 cells", "type": "cell-based", "description": "MCF7 ([…], CVCL_0031) were cultured in high-glucose DMEM medium (Gibco) supplemented with 10% fetal bovine serum (HyClone), 2 mM L-glutamine and 100 U/ml penicillin/streptomycin (Gibco). MOLT4 ([…], CVCL_0013) were cultured in RPMI 1640 medium (Gibco) supplemented with 10% fetal bovine serum and 2 mM L-glutamine. OVCAR3 ([…], CVCL_0465), Hey A8 ([…], CVCL_8878) and OMM1 ([…], CVCL_6939) were cultured in RPMI 1640 medium (Gibco) supplemented with 10% fetal bovine serum, 2 mM L-glutamine and 100 U/ml penicillin/streptomycin (Gibco). All cell lines were cultured at 37° C. in a humidified 5% CO2 incubator. HEK293 cells stably expressing Nluc-PAK1 were constructed by transfecting with the pFN31K Nluc-PAK1 expression vector (0.5 μg DNA per well) in 12-well plates using Lipofectamine™ 3000 (Invitrogen) according to the manufacturer's protocol. Transfected Nluc-PAK1 cells were cultured for 1 week in DMEM medium containing G418 (2 mg mL^−1) to select stable clones.\nHEK293 cells stably expressing pFN31K-Nluc-PAK1 were assayed for luciferase activity according to the manufacturer's Nano-Glo® Live Cell Assay System protocol (Promega). In brief, 25 μl of Nano-Glo® Live Cell Reagent was added per well and the plate was gently mixed by hand, then placed in a 37° C. luminometer for 10 minutes.\nTo better quantify the effect of degrader treatment, HEK293 cells were transfected with an expression vector encoding nano-luciferase (Nluc)-tagged PAK1. The Nluc tag allows for luciferase-based quantitation of protein expression (England, et al. (2016) Bioconjug. Chem., 27:1175-1187). Nluc-PAK1 cells were treated with BJG-05-039 or its N-methylated analog, BJG-05-098, and PAK1 expression was assessed (FIG. 2D)."}, "FLT3(D835V)": {"molecular_target": "FLT3(D835V) (Homo sapiens, UniProt P36888, D835V)", "assay": "KINOMEscan", "details": "read-out: Percent Control", "procedure": "as §1"}, "TAOK1": {"molecular_target": "TAOK1 (Homo sapiens, UniProt Q7L7X3)", "assay": "KINOMEscan", "details": "read-out: Percent Control", "procedure": "as §1"}, "ITK": {"molecular_target": "ITK (Homo sapiens, UniProt Q08881)", "sequence (Q08881 whole entry)": "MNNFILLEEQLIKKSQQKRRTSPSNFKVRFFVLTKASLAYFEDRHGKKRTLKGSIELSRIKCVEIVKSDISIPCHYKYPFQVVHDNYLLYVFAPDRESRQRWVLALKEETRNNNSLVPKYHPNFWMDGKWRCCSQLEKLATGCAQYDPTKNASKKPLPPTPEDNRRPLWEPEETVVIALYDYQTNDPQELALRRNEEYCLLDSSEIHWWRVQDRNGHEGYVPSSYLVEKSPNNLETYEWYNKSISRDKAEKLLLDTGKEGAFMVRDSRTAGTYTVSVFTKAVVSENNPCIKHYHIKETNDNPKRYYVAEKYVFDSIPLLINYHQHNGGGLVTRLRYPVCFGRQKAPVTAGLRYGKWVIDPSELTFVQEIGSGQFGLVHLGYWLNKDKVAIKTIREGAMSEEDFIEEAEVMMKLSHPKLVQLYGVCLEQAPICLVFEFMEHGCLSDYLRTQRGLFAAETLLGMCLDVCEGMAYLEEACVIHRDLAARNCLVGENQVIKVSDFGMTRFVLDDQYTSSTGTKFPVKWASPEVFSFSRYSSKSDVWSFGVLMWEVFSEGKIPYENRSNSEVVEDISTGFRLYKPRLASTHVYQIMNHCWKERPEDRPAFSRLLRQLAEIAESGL", "assay": "KINOMEscan", "details": "read-out: Percent Control", "procedure": "as §1"}, "KIT-autoinhibited": {"molecular_target": "KIT-autoinhibited (Homo sapiens, UniProt P10721)", "sequence (P10721 544-976 limits assumed)": "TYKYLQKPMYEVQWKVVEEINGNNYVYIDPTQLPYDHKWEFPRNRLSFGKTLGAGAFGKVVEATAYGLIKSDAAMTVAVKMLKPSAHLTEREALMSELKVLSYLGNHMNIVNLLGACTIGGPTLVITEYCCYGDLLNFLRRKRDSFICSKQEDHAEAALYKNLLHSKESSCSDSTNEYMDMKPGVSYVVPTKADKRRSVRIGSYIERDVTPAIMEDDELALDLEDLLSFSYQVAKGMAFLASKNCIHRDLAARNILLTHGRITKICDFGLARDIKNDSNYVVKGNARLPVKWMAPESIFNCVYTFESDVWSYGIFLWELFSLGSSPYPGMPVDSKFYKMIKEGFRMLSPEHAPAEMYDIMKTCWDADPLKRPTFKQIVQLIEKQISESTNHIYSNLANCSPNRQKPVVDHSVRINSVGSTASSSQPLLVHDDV", "assay": "KINOMEscan", "details": "read-out: Percent Control", "procedure": "as §1"}, "EGFR(L747-T751del, Sins)": {"molecular_target": "EGFR(L747-T751del, Sins) (Homo sapiens, UniProt P00533, DEL747-750/T751S)", "sequence (P00533 with tags, fused parts or gaps DEL747-750/T751S limits assumed)": "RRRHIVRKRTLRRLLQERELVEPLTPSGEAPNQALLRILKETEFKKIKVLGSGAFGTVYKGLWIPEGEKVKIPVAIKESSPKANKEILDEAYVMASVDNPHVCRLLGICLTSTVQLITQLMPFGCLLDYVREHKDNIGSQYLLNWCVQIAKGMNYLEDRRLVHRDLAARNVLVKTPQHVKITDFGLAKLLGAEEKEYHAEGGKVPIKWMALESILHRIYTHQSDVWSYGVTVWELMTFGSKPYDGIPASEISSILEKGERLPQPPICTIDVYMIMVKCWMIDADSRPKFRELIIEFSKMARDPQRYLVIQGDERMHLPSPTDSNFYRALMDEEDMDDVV", "assay": "KINOMEscan", "details": "read-out: Percent Control", "procedure": "as §1"}, "CSF1R-autoinhibited": {"molecular_target": "CSF1R-autoinhibited (Homo sapiens, UniProt P07333)", "assay": "KINOMEscan", "details": "read-out: Percent Control", "procedure": "as §1"}, "PAK1 [1]": {"molecular_target": "T2, PAK1 (Homo sapiens, UniProt Q13153)", "T2 sequence (Q13153 whole entry)": "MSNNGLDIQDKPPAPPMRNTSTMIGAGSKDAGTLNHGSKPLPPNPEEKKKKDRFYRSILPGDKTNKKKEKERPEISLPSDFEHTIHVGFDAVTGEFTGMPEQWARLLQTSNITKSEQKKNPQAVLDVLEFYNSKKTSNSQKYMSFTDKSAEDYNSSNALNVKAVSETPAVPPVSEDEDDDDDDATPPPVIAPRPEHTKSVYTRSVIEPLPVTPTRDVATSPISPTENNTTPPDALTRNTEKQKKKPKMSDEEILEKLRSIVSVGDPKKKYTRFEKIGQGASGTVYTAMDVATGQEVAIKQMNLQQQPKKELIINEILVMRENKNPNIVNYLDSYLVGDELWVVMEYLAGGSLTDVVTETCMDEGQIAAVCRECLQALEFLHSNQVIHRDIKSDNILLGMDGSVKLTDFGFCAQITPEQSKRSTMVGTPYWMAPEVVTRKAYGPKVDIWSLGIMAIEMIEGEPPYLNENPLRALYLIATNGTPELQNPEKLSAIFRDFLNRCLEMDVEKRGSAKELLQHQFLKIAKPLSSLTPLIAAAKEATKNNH", "assay": "KINOMEscan", "details": "read-out: Percent Control", "procedure": "as §1"}, "CAMKK2": {"molecular_target": "CAMKK2 (Homo sapiens, UniProt Q96RR4)", "sequence (Q96RR4 whole entry)": "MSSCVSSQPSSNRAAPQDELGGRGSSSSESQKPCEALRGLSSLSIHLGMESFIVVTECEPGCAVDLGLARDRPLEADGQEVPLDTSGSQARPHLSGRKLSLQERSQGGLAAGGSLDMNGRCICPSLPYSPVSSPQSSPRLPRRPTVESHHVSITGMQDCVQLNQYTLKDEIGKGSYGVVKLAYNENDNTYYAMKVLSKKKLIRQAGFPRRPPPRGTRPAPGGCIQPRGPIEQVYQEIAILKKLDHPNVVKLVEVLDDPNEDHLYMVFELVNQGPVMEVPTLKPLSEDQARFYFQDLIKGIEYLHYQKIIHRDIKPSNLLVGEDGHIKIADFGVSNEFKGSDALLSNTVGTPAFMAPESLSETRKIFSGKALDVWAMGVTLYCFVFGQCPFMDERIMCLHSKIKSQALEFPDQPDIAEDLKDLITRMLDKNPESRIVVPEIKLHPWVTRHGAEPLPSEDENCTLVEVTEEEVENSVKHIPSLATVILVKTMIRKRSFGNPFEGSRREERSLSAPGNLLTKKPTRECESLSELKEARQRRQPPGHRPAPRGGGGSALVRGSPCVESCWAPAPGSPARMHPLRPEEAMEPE", "assay": "KINOMEscan", "details": "read-out: Percent Control", "procedure": "as §1"}, "CDK5": {"molecular_target": "CDK5 (Homo sapiens, UniProt Q00535)", "sequence (Q00535 whole entry)": "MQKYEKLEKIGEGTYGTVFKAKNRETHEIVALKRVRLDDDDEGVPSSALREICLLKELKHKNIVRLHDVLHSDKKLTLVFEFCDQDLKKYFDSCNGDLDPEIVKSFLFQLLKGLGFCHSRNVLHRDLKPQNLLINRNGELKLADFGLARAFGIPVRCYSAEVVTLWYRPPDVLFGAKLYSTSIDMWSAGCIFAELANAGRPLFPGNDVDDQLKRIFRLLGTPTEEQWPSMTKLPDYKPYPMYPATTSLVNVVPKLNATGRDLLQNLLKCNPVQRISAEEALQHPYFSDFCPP", "assay": "KINOMEscan", "details": "read-out: Percent Control", "procedure": "as §1"}, "ERK4": {"molecular_target": "ERK4 (Homo sapiens, UniProt P31152)", "assay": "KINOMEscan", "details": "read-out: Percent Control", "procedure": "as §1"}, "PIK3C2B": {"molecular_target": "PIK3C2B (Homo sapiens, UniProt O00750)", "assay": "KINOMEscan", "details": "read-out: Percent Control", "procedure": "as §1"}, "CAMK2A": {"molecular_target": "CAMK2A (Homo sapiens, UniProt Q9UQM7)", "assay": "KINOMEscan", "details": "read-out: Percent Control", "procedure": "as §1"}, "KIT(V559D, V654A)": {"molecular_target": "KIT(V559D, V654A) (Homo sapiens, UniProt P10721, V559D/V654A)", "sequence (P10721 26-976 V559D/V654A)": "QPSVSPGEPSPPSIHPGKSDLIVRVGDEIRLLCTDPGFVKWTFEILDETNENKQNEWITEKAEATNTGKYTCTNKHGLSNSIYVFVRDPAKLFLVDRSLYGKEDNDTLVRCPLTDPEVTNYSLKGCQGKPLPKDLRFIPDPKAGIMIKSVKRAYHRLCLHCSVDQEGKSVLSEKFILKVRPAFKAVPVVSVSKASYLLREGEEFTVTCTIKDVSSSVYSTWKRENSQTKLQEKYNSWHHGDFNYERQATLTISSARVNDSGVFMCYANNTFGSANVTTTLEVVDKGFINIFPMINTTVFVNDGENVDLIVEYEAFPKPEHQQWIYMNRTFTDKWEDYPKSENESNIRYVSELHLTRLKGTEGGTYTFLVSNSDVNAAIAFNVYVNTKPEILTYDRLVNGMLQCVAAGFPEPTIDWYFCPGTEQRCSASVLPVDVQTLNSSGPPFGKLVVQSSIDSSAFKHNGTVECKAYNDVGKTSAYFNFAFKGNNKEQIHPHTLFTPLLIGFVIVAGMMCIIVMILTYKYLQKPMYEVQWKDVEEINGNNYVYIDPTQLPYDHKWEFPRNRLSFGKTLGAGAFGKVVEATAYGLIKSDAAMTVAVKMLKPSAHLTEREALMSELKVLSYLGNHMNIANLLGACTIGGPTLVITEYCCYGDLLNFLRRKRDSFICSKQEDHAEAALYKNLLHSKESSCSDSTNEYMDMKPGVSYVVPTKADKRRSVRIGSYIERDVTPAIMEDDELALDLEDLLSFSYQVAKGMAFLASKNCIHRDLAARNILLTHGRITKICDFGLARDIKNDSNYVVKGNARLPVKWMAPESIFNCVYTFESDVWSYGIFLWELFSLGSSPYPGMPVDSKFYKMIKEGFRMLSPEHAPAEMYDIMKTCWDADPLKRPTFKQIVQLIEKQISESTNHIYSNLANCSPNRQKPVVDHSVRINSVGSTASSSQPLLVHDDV", "assay": "KINOMEscan", "details": "read-out: Percent Control", "procedure": "as §1"}, "VEGFR2": {"molecular_target": "VEGFR2 (Homo sapiens, UniProt P35968)", "assay": "KINOMEscan", "details": "read-out: Percent Control", "procedure": "as §1"}, "EGFR": {"molecular_target": "EGFR (Homo sapiens, UniProt P00533)", "assay": "KINOMEscan", "details": "read-out: Percent Control", "procedure": "as §1"}, "p38-alpha": {"molecular_target": "p38-alpha (Homo sapiens, UniProt Q16539)", "sequence (Q16539 whole entry)": "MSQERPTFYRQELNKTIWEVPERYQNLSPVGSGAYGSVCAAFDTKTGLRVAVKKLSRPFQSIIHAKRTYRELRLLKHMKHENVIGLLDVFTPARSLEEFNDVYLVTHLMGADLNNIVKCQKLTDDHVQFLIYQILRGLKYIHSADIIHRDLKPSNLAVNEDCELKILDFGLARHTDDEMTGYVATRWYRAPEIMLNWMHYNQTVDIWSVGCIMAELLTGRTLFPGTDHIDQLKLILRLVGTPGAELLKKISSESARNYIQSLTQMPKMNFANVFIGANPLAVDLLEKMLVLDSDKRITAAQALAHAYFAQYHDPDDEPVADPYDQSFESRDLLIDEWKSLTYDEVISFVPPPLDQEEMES", "assay": "KINOMEscan", "details": "read-out: Percent Control", "procedure": "as §1"}, "PAK1 [2]": {"molecular_target": "T2, PAK1", "assay": "PAK1 degradation in Panc1 cells, Western blot", "type": "cell-based", "design": "endogenous in cells", "details": "compared with BJG-05-014 and BJG-05-027", "description": "In vitro kinase assays were performed using recombinant PAK1 and PAK2, using a library of small molecule protein kinase inhibitors. […] FIG. 1C is a series of Western blots showing the degradation of PAK1 in Panc1 cells by the NVS-PAK1-1-based (allosteric) degraders BJG-05-014, BJG-05-027, and BJG-05-039. Quantification is shown below in the bar graph. FIG. 1D is a series of Western blots showing PAK1, PAK2, and GAPDH in Panc1 cells treated with the indicated amounts of the NVS-PAK1-1-based degrader BJG-05-039 and ATP-competitive degraders BJG-05-093, BJG-05-094, and BJG-05-095.\nBJG-05-014, BJG-05-027, and BJG-05-039 were tested in Panc1 cells for their ability to degrade PAK1."}, "FLT4": {"molecular_target": "FLT4 (Homo sapiens, UniProt P35916)", "assay": "KINOMEscan", "details": "read-out: Percent Control", "procedure": "as §1"}, "FGFR2": {"molecular_target": "FGFR2 (Homo sapiens, UniProt P21802)", "sequence (P21802 22-821)": "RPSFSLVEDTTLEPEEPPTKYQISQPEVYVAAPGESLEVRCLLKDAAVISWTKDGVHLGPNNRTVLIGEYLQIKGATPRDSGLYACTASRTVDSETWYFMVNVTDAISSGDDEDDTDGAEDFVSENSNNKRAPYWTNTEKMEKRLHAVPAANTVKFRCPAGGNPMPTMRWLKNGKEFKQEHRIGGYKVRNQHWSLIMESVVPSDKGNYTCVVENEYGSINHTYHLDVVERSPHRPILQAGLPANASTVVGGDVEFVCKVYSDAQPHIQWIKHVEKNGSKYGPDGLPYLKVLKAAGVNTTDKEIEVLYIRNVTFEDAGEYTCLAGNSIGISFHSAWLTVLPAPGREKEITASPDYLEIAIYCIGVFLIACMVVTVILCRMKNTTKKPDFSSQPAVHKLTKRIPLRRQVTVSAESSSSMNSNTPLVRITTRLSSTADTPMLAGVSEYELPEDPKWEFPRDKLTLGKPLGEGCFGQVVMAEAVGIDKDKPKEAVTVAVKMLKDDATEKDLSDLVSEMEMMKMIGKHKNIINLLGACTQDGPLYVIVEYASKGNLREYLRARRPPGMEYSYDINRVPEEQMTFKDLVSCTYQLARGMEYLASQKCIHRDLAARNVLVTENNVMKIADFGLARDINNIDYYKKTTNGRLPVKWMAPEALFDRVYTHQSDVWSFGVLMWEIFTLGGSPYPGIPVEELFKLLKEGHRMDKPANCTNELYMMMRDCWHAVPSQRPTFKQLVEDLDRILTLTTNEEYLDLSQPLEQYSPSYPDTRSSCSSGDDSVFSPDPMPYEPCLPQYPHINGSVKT", "assay": "KINOMEscan", "details": "read-out: Percent Control", "procedure": "as §1"}},
  "data": [
    {"compound": "O=C1CCC(N2C(=O)c3cccc(NCCCCCCCCNC(=O)N4CC[C@H](NC5=Nc6cc(F)ccc6N(CC(F)F)c6ccc(Cl)cc65)C4)c3C2=O)C(=O)N1", "note": "(stereo partly drawn) [BJG-05-039, (3S)-3-((2-Chloro-5-(2,2-difluoroethyl)-8-fluoro-5H-dibenzo[b,e][1,4]diazepin-11-yl)amino)-N-(8-((2-(2,6-dioxopiperidin-3-yl)-1,3-dioxoisoindolin-4-yl)amino)octyl)pyrrolidine-1-carboxamide]", "values": [
      {"measurement": "remaining binding at 10 µM", "setting": "MAP3K1", "value": 100, "unit": "%"},
      {"measurement": "remaining binding at 10 µM", "setting": "ABL1-nonphosphorylated", "value": 83, "unit": "%"},
      {"measurement": "Reduction in PAK1 expression", "setting": "Nluc-PAK1; 10 nM, HEK293 Nluc-PAK1 cells, 24 hours", "value": "approximately 70%"},
      {"measurement": "Concentration of half-maximal degradation of PAK1", "setting": "Nluc-PAK1; HEK293 Nluc-PAK1 cells", "value": "low nM concentrations"},
      {"measurement": "Loss of the PAK1 protein", "setting": "Nluc-PAK1; in the absence of drug efflux inhibitors", "value": 70, "unit": "%"},
      {"measurement": "remaining binding at 10 µM", "setting": "FLT3(D835V)", "value": 76, "unit": "%"},
      {"measurement": "remaining binding at 10 µM", "setting": "TAOK1", "value": 95, "unit": "%"},
      {"measurement": "remaining binding at 10 µM", "setting": "ITK", "value": 91, "unit": "%"},
      {"measurement": "remaining binding at 10 µM", "setting": "KIT-autoinhibited", "value": 100, "unit": "%"},
      {"measurement": "remaining binding at 10 µM", "setting": "EGFR(L747-T751del, Sins)", "value": 80, "unit": "%"},
      {"measurement": "remaining binding at 10 µM", "setting": "CSF1R-autoinhibited", "value": 100, "unit": "%"},
      {"measurement": "remaining binding at 10 µM", "setting": "PAK1 [1]", "value": 20, "unit": "%"},
      {"measurement": "remaining binding at 10 µM", "setting": "CAMKK2", "value": 46, "unit": "%"},
      {"measurement": "remaining binding at 10 µM", "setting": "CDK5", "value": 90, "unit": "%"},
      {"measurement": "remaining binding at 10 µM", "setting": "ERK4", "value": 52, "unit": "%"},
      {"measurement": "remaining binding at 10 µM", "setting": "PIK3C2B", "value": 90, "unit": "%"},
      {"measurement": "remaining binding at 10 µM", "setting": "CAMK2A", "value": 39, "unit": "%"},
      {"measurement": "remaining binding at 10 µM", "setting": "KIT(V559D, V654A)", "value": 63, "unit": "%"},
      {"measurement": "remaining binding at 10 µM", "setting": "VEGFR2", "value": 100, "unit": "%"},
      {"measurement": "remaining binding at 10 µM", "setting": "EGFR", "value": 74, "unit": "%"},
      {"measurement": "remaining binding at 10 µM", "setting": "p38-alpha", "value": 60, "unit": "%"},
      {"measurement": "Ability to degrade PAK1", "setting": "PAK1 [2]", "value": "most promising profile"},
      {"measurement": "remaining binding at 10 µM", "setting": "FLT4", "value": 86, "unit": "%"},
      {"measurement": "remaining binding at 10 µM", "setting": "FGFR2", "value": 77, "unit": "%"}
    ]}
  ]
}
